According to patent US20260108546A1 (ELI LILLY AND COMPANY, priority 2024, published 2026):

Target: T1, hGIP-R (Homo sapiens, UniProt P48546)
T1 construct: expressed in transfected cells; host or cells: HEK-293 clonal cell lines
T1 sequence (P48546 22-466): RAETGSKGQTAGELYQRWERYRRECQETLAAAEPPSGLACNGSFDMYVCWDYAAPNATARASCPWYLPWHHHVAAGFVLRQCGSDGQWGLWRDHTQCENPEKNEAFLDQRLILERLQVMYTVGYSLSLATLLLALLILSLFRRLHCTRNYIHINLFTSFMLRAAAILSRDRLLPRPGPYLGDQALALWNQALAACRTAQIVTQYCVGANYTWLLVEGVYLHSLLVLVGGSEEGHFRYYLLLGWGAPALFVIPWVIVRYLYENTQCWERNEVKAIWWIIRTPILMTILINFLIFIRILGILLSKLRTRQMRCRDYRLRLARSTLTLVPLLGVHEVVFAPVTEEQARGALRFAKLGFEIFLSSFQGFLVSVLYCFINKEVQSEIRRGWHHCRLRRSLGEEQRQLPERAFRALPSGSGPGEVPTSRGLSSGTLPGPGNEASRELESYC
Assay: Functional hGIP-R Assay (cAMP formation, HTRF)
Format: cell-based
Details: for Emax: cAMP efficacy, percent of maximal response to GIP(1-42)OH, 37° C., 0.1% bovine casein, arithmetic mean ± SEM; for EC50: cAMP potency, HEK-293 cells expressing hGIP-R, incubated at 37° C. in the presence of 0.1% bovine casein, geometric mean, read-out: Human GIP-R EC50, nM (SEM, n)
How it was run: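 Relative EC50 and Emax came from four-parameter logistic fits of cAMP as a percent of the human GIP (1-42) OH maximal response. The cAMP was measured by competitive HTRF after 30 min, 37 °C compound exposure of hGIP-R HEK-293 clones in IBMX (250 μM)-containing medium.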

SMILES	Emax [%]	EC50 [nM]
Cc1cn2cc(-c3ccc([C@H]4C[C@@]45CCN([C@H](Cc4cnn(C(F)F)c4)C(=O)NC(C)(C)Cn4nc(C(F)(F)F)cc4-c4cc(F)c(=O)n(C)c4)C5=O)c(F)c3)cnc2n1 [Example 100, (2R)-3-(1-(Difluoromethyl)-1H-pyrazol-4-yl)-N-(1-(5-(5-fluoro-1-methyl-6-oxo-1,6-dihydropyridin-3-yl)-3-(trifluoromethyl)-1H-pyrazol-1-yl)-2-methylpropan-2-yl)-2-((1S,3R)-1-(2-fluoro-4-(2-methylimidazo[1,2-a]pyrimidin-6-yl)phenyl)-4-oxo-5-azaspiro[2.4]heptan-5-yl)propanamide]	70.9 ± 1.67	3.47
Cn1cc(C[C@@H](NC(=O)[C@H]2C[C@@H]2c2ccc(-c3cnc4nn(C)cc4c3)cc2)C(=O)NC(C)(C)Cn2nc(C(F)F)cc2-c2cn[nH]n2)cn1 [Example 44, (1S,2S)-N-((R)-1-((1-(3-(Difluoromethyl)-5-(2H-1,2,3-triazol-4-yl)-1H-pyrazol-1-yl)-2-methylpropan-2-yl)amino)-3-(1-methyl-1H-pyrazol-4-yl)-1-oxopropan-2-yl)-2-(4-(2-methyl-2H-pyrazolo[3,4-b]pyridin-5-yl)phenyl)cyclopropane-1-carboxamide]	111 ± 17.5	122
Cn1cc(C[C@@H](NC(=O)[C@H]2C[C@@H]2c2ccc(-c3cnc4nn(C)cc4c3)cc2)C(=O)NC(C)(C)Cn2nc(C(F)(F)F)cc2-c2cnn(C)n2)cn1 [Example 66, (1S,2S)-N—((R)-1-((2-Methyl-1-(5-(2-methyl-2H-1,2,3-triazol-4-yl)-3-(trifluoromethyl)-1H-pyrazol-1-yl)propan-2-yl)amino)-3-(1-methyl-1H-pyrazol-4-yl)-1-oxopropan-2-yl)-2-(4-(2-methyl-2H-pyrazolo[3,4-b]pyridin-5-yl)phenyl)cyclopropane-1-carboxamide]	118 ± 0.533	99.3
Cn1cc(C[C@@H](NC(=O)[C@H]2C[C@@H]2c2ccc(-c3cnc4nn(C)cc4c3)cc2)C(=O)NC(C)(C)Cn2nc(C(F)(F)F)cc2-c2ccnc(C(C)(C)O)c2)cn1 [Example 18, (1S,2S)-N-((R)-1-((1-(5-(2-(2-Hydroxypropan-2-yl)pyridin-4-yl)-3-(trifluoromethyl)-1H-pyrazol-1-yl)-2-methylpropan-2-yl)amino)-3-(1-methyl-1H-pyrazol-4-yl)-1-oxopropan-2-yl)-2-(4-(2-methyl-2H-pyrazolo [3,4-b]pyridin-5-yl)phenyl) cyclopropane-1-carboxamide]	116 ± 13	12
CN(C(=O)[C@H]1C[C@@H]1c1ccc(-c2cnc3nn(C(F)(F)F)cc3c2)cc1)[C@H](Cc1cnn(C)c1)C(=O)NC(C)(C)Cn1nc(C(F)(F)F)cc1-c1ccc(=O)n(C)c1 [Example 89, (1S,2S)-N-Methyl-N-((R)-1-((2-methyl-1-(5-(1-methyl-6-oxo-1,6-dihydropyridin-3-yl)-3-(trifluoromethyl)-1H-pyrazol-1-yl)propan-2-yl)amino)-3-(1-methyl-1H-pyrazol-4-yl)-1-oxopropan-2-yl)-2-(4-(2-(trifluoromethyl)-2H-pyrazolo[3,4-b]pyridin-5-yl)phenyl)cyclopropane-1-carboxamide]	32.3	152
Cn1cc(C[C@@H](NC(=O)[C@H]2C[C@@H]2c2ccc(-c3cnc4nn(C)cc4c3)cc2)C(=O)NC(C)(C)Cn2nc(C(F)(F)F)cc2-c2cn[nH]n2)cn1 [Example 92, (1S,2S)-N—((R)-1-((1-(5-(2H-1,2,3-Triazol-4-yl)-3-(trifluoromethyl)-1H-pyrazol-1-yl)-2-methylpropan-2-yl)amino)-3-(1-methyl-1H-pyrazol-4-yl)-1-oxopropan-2-yl)-2-(4-(2-methyl-2H-pyrazolo[3,4-b]pyridin-5-yl)phenyl)cyclopropane-1-carboxamide]	126 ± 1.93	47.1
CC(C)(Cn1cc(C(F)(F)F)cn1)NC(=O)[C@@H](Cc1cnc2ncccn12)NC(=O)[C@H]1C[C@@H]1c1ccc(-c2cnc3nn(CC4CCC4)cc3c2)cc1 [Example 77, (1S,2S)-2-(4-(2-(Cyclobutylmethyl)-2H-pyrazolo[3,4-b]pyridin-5-yl)phenyl)-N-((R)-3-(imidazo[1,2-a]pyrimidin-3-yl)-1-((2-methyl-1-(4-(trifluoromethyl)-1H-pyrazol-1-yl)propan-2-yl)amino)-1-oxopropan-2-yl)cyclopropane-1-carboxamide]	103 ± 12	88.2
